We go through eleven molecules from patent publication US20250152564A1, “PROPYLENE KETONE-CONTAINING BIOINHIBITOR, PREPARATION METHOD THEREFOR, AND USE THEREOF” (SHANGHAI HANSOH BIOMEDICAL CO., LTD., priority 2022, published 2025).

The target in one series is FGFR2 V564F (Homo sapiens (Human), UniProt P21802, V564F). As to the kind of experiment: TR-FRET kinase inhibition assay, FGFR2 V564F. The format is biochemical. Conditions: ATP Km concentration (20 μM). How it is done: (§1) To measure the IC50 values of the compounds against FGFR1, FGFR2, FGFR3, FGFR4, and FGFR2 V564F at ATP Km concentrations by TR-FRET method.
(§2) TR-FRET (time-resolved fluorescence resonance energy transfer) method was used to detect the inhibitory activity of the compounds on FGFR1, FGFR2, FGFR3, FGFR4, and FGFR2 V564F kinase region fragments. The highest detection concentration of the compounds in 5 kinase experiments was 1000 nM, which was diluted in 3 folds, with a total of 11 concentrations (1000 nM to 0.017 nM). A kinase buffer (50 mM HEPES pH 7.5, 1 mM EGTA, 10 mM MgCl2, 2 mM DTT, and 0.01% Tween-20) was used to prepare 4× enzyme solution, 4× compound solutions diluted in gradient, and a 2×ATP/Peptide substrate solution. To a 384-well plate, 2.5 μL of enzyme solution and 2.5 μL of diluted […] compound solution were added, and 5 μL of 2×ATP/Peptide substrate solution was then added. After reacting at room temperature for 60 minutes for FGFR1, FGFR2, FGFR3, and FGFR2 V564F kinases, and 120 minutes for FGFR4 kinase, 10 μL of a 2× termination and detection mixed liquid prepared with 1×LANCE detection buffer with an EDTA concentration of 20 mM and a Europium-anti-phosphotyrosine (PT66) concentration of 2 nM was added to each well of the plate. After reacting at room temperature for 60 minutes for FGFR1, FGFR2, FGFR3, and FGFR4, and 30 minutes for FGFR2 V564F, the fluorescence signal value in each well of the plate was measured by a microplate reader.
(§3) 1) Inhibition rate (%): Calculation was performed on the raw data (665 nm/620 nm reading ratio) according to the following formula to obtain the inhibition rate. Inhibition rate %=[(mean value in positive control well−value in sample well)/(mean value in positive control well−mean value in negative control well)]×100, wherein the positive control well was a reaction well without a compound […], and the negative control well was a reaction wells without an enzyme.
(§4) 2) Curve fitting: Log(inhibitor) vs. response—Variable slope (four parameters) in GraphPad Prism 6 was used for fitting equation analysis of the compound concentration and the corresponding inhibition rate, and the curve was fitted to obtain the IC50 values of the compounds.

Series [1] is described as follows: Pharmacokinetic experiment in SD rats after oral administration. It counts as in vivo. Conditions: 5 mg/kg, plasma; for AUC(0-t) / AUC(0-inf) / half-life / MRT / Cmax: male, Sprague-Dawley (SD), rat, po; for AUC(0-t): read-out: Area under the curve AUC0-t; for AUC(0-inf): read-out: Area under the curve AUC0-∞; for half-life: read-out: Half-life t1/2 (converted); for MRT: read-out: Mean residence time MRT; for Cmax: read-out: Plasma concentration Cmax; for Time to peak tmax: p.o. The method, then:
To study the pharmacokinetic behavior of the compounds of the present invention in the rat body (plasma) after oral administration at a dose of 5 mg/kg using SD rats as test animals.
3 SD rats/group, male, from Shanghai Jiesijie Experimental Animal Co., Ltd., animal production license number (SCXK (Shanghai) 2013-0006 N0.311620400001794).
PO, 10% solutol HS15-0.5% CMC-Na was dissolved by ultrasound and prepared into a clear solution or homogeneous suspension.
3 SD rats/group, male; p.o. respectively at a dose of 5 mg/kg and an administration volume of 10 mL/kg after the […] were fasted overnight.
After oral administration to rats, at 0.25, 0.5, 1, 2, 4, 6, 8 and 24 hours, 0.2 mL of blood was collected from the jugular vein, placed in an EDTA-K2 test tube, centrifuged at 6000 rpm for 6 min at 4° C. to separate the plasma, which was stored at −80° C.
1) 100 μL of acetonitrile was added to 20 μL of plasma sample for pelleting, and it was mixed and centrifuged at 3500×g for 5-20 min.
2) The treated supernatant solution was taken and subjected to LC/MS/MS to analyze the concentrations of the test compounds. LC/MS/MS analysis instrument: AB Sciex API 4000 Qtrap.
• Liquid phase conditions: Shimadzu LC-20AD pump • Chromatographic column: Waters Xbridge C18 5 μm, 4.6×50 mm mobile phase: liquid A was 0.1% aqueous formic acid solution, and liquid B was methanol • Flow rate: 1.0 mL/min • Elution time: 0-4.0 min, the eluent was as follows: […]

A further series has as its target FGFR2 (Homo sapiens (Human), UniProt P21802). In words: TR-FRET kinase inhibition assay, FGFR2. It counts as biochemical. The settings on record: ATP Km concentration (30 μM). The method, then: as §1, §2, §3, §4
A general note: In TR-FRET formats the signal depends on donor and acceptor labels being close together.

For the next series, the target named is FGFR1 (Homo sapiens (Human), UniProt P11362). In words: TR-FRET kinase inhibition assay, FGFR1. The format is biochemical. The settings on record: ATP Km concentration (30 μM). The method, then: as §1, §2, §3, §4
The subject of series [2] is BaF3 FGFR2-BICC1 V564F cells. In words: CellTiter-Glo cell proliferation inhibition, BaF3 FGFR2-BICC1 V564F. The format is cell-based. The settings on record: Mus musculus, 72 h, read-out: BaF3 FGFR2-BICC1 V564F inhibitory activity IC50. The method, then: (§5) To evaluate inhibitory effects of the compounds on the proliferation of NCI-H716, SNU-16 and BaF3-FGFR2-BICC1 V564F cells by cell proliferation inhibition experiments.
(§6) CellTiter-Glo method was used to detect inhibitory effects of the compounds on the proliferation of NCI-H716, SNU-16 and BaF3 FGFR2-BICC1 V564F cells. The highest detection concentration of the compounds was 1000 nM, which was diluted in 3 folds, with a total of 9 concentrations (1000 nM to 0.15 nM). After the cells were plated at an appropriate density, compounds were added the next day and incubated for 72 h before detection using the […] detection kit.
(§7) 1) Inhibition rate (%): Inhibition rate %=[(mean value in positive control well−value in sample well)/(mean value in positive control well−mean value in negative control well)]×100, wherein the positive control well was a reaction well without a compound […], and the negative control well was a reaction wells without an enzyme.
as §4
On the technique in general: Cellular ATP, detected with luciferase, serves as a proxy for viable cell number.

The next series has as its system NCI-H716 cells. In words: CellTiter-Glo cell proliferation inhibition, NCI-H716. The format is cell-based. Conditions: Homo sapiens, 72 h, read-out: NCI-H716 cell proliferation inhibition rate IC50. How it is done:
as §5, §6, §7, §4

FGFR2 V564F, sequence (P21802 481-770 V564F): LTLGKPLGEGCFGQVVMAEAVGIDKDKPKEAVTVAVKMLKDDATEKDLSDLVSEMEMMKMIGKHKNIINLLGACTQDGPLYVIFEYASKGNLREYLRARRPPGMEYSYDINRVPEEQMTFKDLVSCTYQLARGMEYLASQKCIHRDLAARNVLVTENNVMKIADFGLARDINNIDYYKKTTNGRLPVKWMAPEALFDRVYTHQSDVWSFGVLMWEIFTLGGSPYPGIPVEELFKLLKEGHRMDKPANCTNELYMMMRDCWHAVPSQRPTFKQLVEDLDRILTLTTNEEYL
FGFR1, sequence (P11362 478-767): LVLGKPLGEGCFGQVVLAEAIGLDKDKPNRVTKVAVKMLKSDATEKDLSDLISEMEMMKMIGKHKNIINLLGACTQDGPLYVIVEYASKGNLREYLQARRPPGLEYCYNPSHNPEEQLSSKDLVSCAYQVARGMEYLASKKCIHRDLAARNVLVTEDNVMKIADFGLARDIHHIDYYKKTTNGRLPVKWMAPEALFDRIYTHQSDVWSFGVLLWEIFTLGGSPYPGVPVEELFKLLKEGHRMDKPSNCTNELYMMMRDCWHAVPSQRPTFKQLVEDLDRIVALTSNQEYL
FGFR2, sequence (P21802 481-770): as the sequence (P21802 481-770 V564F) above, with F84V counted along it

The MRT is a mean duration of stay, worked out from the concentration-time curve. `C=CC(=O)N1CC[C@H](n2nc(C#Cc3ccc4c(c3)ncn4C3CC3)c3c(N)ncc(C(=O)CC)c32)C1` [Example 39, (S)-1-(3-(4-amino-3-((1-cyclopropyl-1H-benzo[d]imidazol-5-yl)ethynyl)-7-propionyl-1H-pyrazolo[4,3-c]pyridin-1-yl)pyrrolidin-1-yl)prop-2-en-1-one] registered an IC50 on FGFR2 V564F of 0.6 nM. In addition, in series [1], the AUC(0-t) worked out at 4190 ng·h/mL, the AUC(0-inf) is 4240 ng·h/mL, the half-life was 1 h and the mean residence time MRT turned out to be 2.63 h. Also, in series [1], the Cmax was found to be 1250 ng/mL and the Time to peak tmax came out at 2 h. The molecule also came in with an IC50 against FGFR2 of 1.7 nM. The molecule also had an IC50 at FGFR1 of 6.1 nM. Also, the IC50 in series [2] is 2.2 nM.
Regarding `C=CC(=O)N1CC[C@H](n2nc(C#Cc3ccc4cn(C)nc4c3)c3c(N)ncc(C(=O)CC)c32)C1` [Example 83, (S)-1-(3-(4-amino-3-((2-methyl-2H-indazol-6-yl)alkynyl)-7-propionyl-1H-pyrazolo[4,3-c]pyridin-1-yl)pyrrolidine-1-methyl)prop-2-en-1-one], the IC50 at FGFR2 V564F amounted to 0.3 nM; at FGFR2, 0.3 nM; on FGFR1 it was 1.7 nM; in series [2] it was 0.7 nM; with NCI-H716 cells, 0.82 nM.
`C=CC(=O)N1CC[C@H](n2nc(C#Cc3cc4ncn(C5CC5)c4cc3Cl)c3c(N)ncc(C(=O)CC)c32)C1` [Example 45, (S)-1-(3-(4-amino-3-((6-chloro-1-cyclopropyl-1H-benzo[d]imidazol-5-yl)ethynyl)-7-propionyl-1H-pyrazolo[4,3-c]pyridin-1-yl)pyrrolidin-1-yl)prop-2-en-1-one] gave an IC50 against FGFR2 V564F of 0.7 nM. Further, in series [1], the AUC(0-t) amounted to 1440 ng·h/mL, the AUC(0-inf) was 1460 ng·h/mL, the half-life was 4.3 h and the mean residence time (MRT) worked out at 4.59 h. Moreover, in series [1], the Cmax stood at 290 ng/mL and the Time to peak tmax came out at 2 h. The IC50 in series [2] was determined as 0.6 nM. Also, the IC50 with NCI-H716 cells is 1.84 nM.
For the molecule `C=CC(=O)N1CC[C@H](n2nc(C#Cc3cc4ncn(CC)c4cc3F)c3c(N)ncc(C(C)=O)c32)C1` [Example 24, (S)-1-(3-(7-acetyl-4-amino-3-((1-ethyl-6-fluoro-1H-benzo[d]imidazol-5-yl)ethynyl)-1H-pyrazolo[4,3-c]pyridin-1-yl)pyrrolidin-1-yl)prop-2-en-1-one], the IC50 came out at 0.4 nM at FGFR2 V564F; 0.7 nM against FGFR2; 3.6 nM at FGFR1; 0.8 nM in series [2]; 2.09 nM in the series on NCI-H716 cells.
For `C=CC(=O)N1CC[C@H](n2nc(C#Cc3cc4ncn(C5CC5)c4cc3F)c3c(N)ncc(C(C)=O)c32)C1` [Example 7, (S)-1-(3-(7-acetyl-4-amino-3-((1-cyclopropyl-6-fluoro-1H-benzo[d]imidazol-5-yl)ethynyl)-1H-pyrazolo[4,3-c]pyridin-1-yl)pyrrolidin-1-yl)prop-2-en-1-one], the IC50 came out at 0.3 nM at FGFR2 V564F; 1 nM against FGFR2; 1.3 nM against FGFR1; 0.9 nM in series [2]; 1.26 nM with NCI-H716 cells.
`C=CC(=O)N1CC[C@H](n2nc(C#Cc3ccc4cn(C)nc4c3)c3c(N)ncc(C(=O)C4CC4)c32)C1` [Example 84, (S)-1-(3-(4-amino-7-(cyclopropanecarbonyl)-3-((2-methyl-2H-indazol-6-yl)ethynyl)-1H-pyrazolo[4,3-c]pyridin-1-yl)pyrrolidin-1-yl)prop-2-en-1-one]: the IC50 at FGFR2 V564F amounted to 0.3 nM; against FGFR2 it was 0.5 nM; on FGFR1, 1 nM; in series [2], 0.1 nM; in the series on NCI-H716 cells, 1.04 nM.
As for `C=CC(=O)N1CC[C@H](n2nc(C#Cc3cc4ncn(C)c4cc3F)c3c(N)ncc(C)c32)C1` [Example 18, (S)-1-(3-(4-amino-3-((6-fluoro-1-methyl-1H-benzo[d]imidazol-5-yl)ethynyl)-7-methyl-1H-pyrazolo[4,3-c]pyridin-1-yl)pyrrolidin-1-yl)prop-2-en-1-one], in the series on NCI-H716 cells, the IC50 is 1.82 nM.
As for `C=CC(=O)N1CC[C@H](n2nc(C#Cc3cc4ncn(C)c4cc3F)c3c(N)ncc(-c4nccs4)c32)C1` [Example 9, (S)-1-(3-(4-amino-3-((6-fluoro-1-methyl-1H-benzo[d]imidazol-5-yl)ethynyl)-7-(thiazol-2-yl)-1H-pyrazolo[4,3-c]pyridin-1-yl)pyrrolidin-1-yl)prop-2-en-1-one], the IC50 against FGFR2 V564F was 1 nM; at FGFR2, 2.2 nM; in series [2], 1.6 nM; in the series with NCI-H716 cells it was 1.82 nM.
Take `C=CC(=O)N1CC[C@H](n2nc(C#Cc3cc4ncn(C)c4cc3F)c3c(N)ncc(C(C)=O)c32)C1` [Example 8, (S)-1-(3-(7-acetyl-4-amino-3-((6-fluoro-1-methyl-1H-benzo[d]imidazol-5-yl)ethynyl)-1H-pyrazolo[4,3-c]pyridin-1-yl)pyrrolidin-1-yl)prop-2-en-1-one]: the IC50 in series [2] worked out at 0.4 nM; in the series with NCI-H716 cells it was 1.74 nM.
For the molecule `C=CC(=O)N1CC[C@H](n2nc(C#Cc3ccc4csnc4c3)c3c(N)ncc(C(=O)CC)c32)C1` [Example 90, (S)-1-(3-(4-amino-3-(benzo[c]isothiazole-6-ethynylene)-7-propionyl-1H-pyrazolo[4,3-c]pyridin-1-yl)pyrrolidine-1-methyl)prop-2-en-1-one], the IC50 stood at 3.1 nM against FGFR2 V564F, 1.6 nM at FGFR2, 3.2 nM in series [2] and 0.98 nM in the series with NCI-H716 cells.
Take `C=CC(=O)N1CC[C@H](n2nc(C#Cc3ccn4ccnc4c3)c3c(N)ncc(C(C)=O)c32)C1` [Example 77, (S)-1-(3-(7-acetyl-4-amino-3-(imidazo[1,2-a]pyridine-7-ethynylene)-1H-pyrazolo[4,3-c]pyridin-1-yl)pyrrolidine-1-methyl)prop-2-en-1-one]: the IC50 at FGFR2 V564F came to 1.4 nM; on FGFR2, 1.8 nM; in series [2] it was 2.9 nM; in the series with NCI-H716 cells, 0.92 nM.
